{
  "source": "paper PMC11211886",
  "about": "(Frontiers in Pharmacology, 2024)",
  "key": {"CYP1A2": {"biological_target": "T1, CYP1A2 (Homo sapiens, UniProt P05177)", "T1 construct": "tissue Life Technologies (Durham, NC, USA); host or cells: human liver microsomes", "T1 sequence (P05177 1-516)": "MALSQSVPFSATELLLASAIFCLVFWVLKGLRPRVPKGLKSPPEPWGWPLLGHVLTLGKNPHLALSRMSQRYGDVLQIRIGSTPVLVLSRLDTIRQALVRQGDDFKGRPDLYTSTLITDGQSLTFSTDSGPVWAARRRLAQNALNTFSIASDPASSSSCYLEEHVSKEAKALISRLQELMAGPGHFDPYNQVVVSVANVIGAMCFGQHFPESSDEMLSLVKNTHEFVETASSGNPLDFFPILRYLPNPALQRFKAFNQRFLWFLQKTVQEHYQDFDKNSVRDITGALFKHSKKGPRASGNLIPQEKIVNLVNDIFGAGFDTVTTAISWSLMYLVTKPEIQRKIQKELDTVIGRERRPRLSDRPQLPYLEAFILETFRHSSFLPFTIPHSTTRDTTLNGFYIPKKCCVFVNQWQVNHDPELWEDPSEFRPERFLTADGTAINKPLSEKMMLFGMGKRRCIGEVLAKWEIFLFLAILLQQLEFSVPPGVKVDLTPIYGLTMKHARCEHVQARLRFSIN", "assay": "Reversible CYP inhibition in HLM, CYP1A2 (phenacetin)", "format": "in vitro ADME", "settings": "for enzyme activity remaining: CYP1A2, HLM", "procedure": "(§1) The markers used to determine the activities of CYP isoforms were phenacetin O-deethylation for CYP1A2 (probe substrate: 50 µM phenacetin), bupropion hydroxylation for CYP2B6 (probe substrate: 70 µM bupropion), paclitaxel 6α-hydroxylation for CYP2C8 (probe substrate: 10 µM paclitaxel), diclofenac 4′-hydroxylation for CYP2C9 (probe substrate: 5 µM diclofenac), S-(+)-mephenytoin 4′-hydroxylation for CYP2C19 (probe substrate: 20 µM S-(+)-mephenytoin), dextromethorphan O-demethylation for CYP2D6 (probe substrate: 6 µM dextromethorphan), chlorzoxazone 6′-hydroxylation for CYP2E1 (probe substrate: 70 µM chlorzoxazone), and testosterone 6β-hydroxylation and midazolam 1′-hydroxylation for CYP3A4/5 (probe substrate: 45 µM testosterone and 5 µM midazolam). […] Alpha-naphthoflavone (0.04 µM), 2-phenyl-2-(1-piperidinyl)propane (5 µM), quercetin (1 µM), sulfaphenazole (0.5 µM), ticlopidine (4 µM), quinidine (0.2 µM), diethyldithiocarbamate (20 µM), and ketoconazole (0.05 µM) were used as positive inhibitors of CYP1A2, 2B6, 2C8, 2C9, 2C19, 2D6, 2E1, and 3A4, respectively. The vehicle control was prepared in the same composition as inhibitor solutions but free of inhibitors. The concentrations of probe substrates were close to Km values that were determined in-house and within the range recommended by the FDA ([Huang et al., 2007]). Reaction mixtures were incubated at 37°C for 5, 20, or 30 min, depending on the probe substrates of CYP isoforms. The reactions were terminated by adding cold acetonitrile containing IS, and the terminated incubation mixtures were centrifuged at 3,000 g for 10 min before LC-MS/MS analysis."}, "[1]": {"assay": "Cytotoxicity on human hepatocytes in induction assay", "format": "cell-based", "settings": "20 μM, CYP2C induction evaluation (data not shown)", "procedure": "[…] […] […] Enzyme activity for each CYP isoform was reported as a fold change over vehicle control and the percent of positive control (detailed calculation in Supplementary 1.1). Hepatocytes were harvested with a lysis buffer from RNeasy 96 Kit (Qiagen Inc., Germantown, MD, USA) to isolate RNA, which was analyzed by real-time quantitative polymerase chain reaction (RT-PCR). […] Emax (the maximal observed induction) and EC50 (the concentration that supports half-maximal induction) were estimated by non-linear regression of fold increase in CYP mRNA expression versus concentration plots."}, "CYP2C9": {"biological_target": "T2, CYP2C9 (Homo sapiens, UniProt P11712)", "T2 construct": "tissue Life Technologies (Durham, NC, USA); host or cells: human liver microsomes", "T2 sequence (P11712 whole entry)": "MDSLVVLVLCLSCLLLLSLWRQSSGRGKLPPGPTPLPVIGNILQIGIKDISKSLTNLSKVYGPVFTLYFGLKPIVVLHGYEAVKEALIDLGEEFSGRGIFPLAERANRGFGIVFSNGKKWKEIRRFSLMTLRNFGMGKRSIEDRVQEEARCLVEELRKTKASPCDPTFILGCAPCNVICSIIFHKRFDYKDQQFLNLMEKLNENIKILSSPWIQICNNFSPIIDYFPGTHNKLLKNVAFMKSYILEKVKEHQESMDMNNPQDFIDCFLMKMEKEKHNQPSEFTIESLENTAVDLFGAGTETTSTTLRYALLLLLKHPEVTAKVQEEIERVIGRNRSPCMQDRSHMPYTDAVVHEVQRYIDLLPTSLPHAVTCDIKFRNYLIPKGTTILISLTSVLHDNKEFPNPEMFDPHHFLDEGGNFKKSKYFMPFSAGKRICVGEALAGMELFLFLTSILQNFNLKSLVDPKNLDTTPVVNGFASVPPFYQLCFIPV", "assay": "Reversible CYP inhibition in HLM, CYP2C9 (diclofenac)", "format": "in vitro ADME", "settings": "for enzyme activity remaining: CYP2C9, HLM", "procedure": "as §1"}, "MATE2-K": {"biological_target": "MATE2-K (Homo sapiens, UniProt Q86VL8)", "sequence (Q86VL8 1-566 isoform Q86VL8-3)": "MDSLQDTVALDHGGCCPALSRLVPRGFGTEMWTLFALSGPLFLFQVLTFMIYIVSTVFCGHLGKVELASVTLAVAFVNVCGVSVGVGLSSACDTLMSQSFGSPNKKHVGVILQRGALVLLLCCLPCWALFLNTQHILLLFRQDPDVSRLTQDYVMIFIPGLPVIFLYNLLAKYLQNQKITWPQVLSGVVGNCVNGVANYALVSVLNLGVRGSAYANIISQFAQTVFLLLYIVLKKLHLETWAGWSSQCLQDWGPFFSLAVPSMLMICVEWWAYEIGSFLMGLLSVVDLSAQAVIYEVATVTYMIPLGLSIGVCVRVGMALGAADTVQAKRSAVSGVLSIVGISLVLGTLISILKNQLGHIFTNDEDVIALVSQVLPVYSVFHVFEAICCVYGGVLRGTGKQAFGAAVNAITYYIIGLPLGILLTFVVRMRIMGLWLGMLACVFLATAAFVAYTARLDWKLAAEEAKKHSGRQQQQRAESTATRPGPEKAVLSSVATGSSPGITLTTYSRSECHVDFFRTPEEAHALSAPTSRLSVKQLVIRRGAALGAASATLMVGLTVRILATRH", "assay": "MATE2-K inhibition, tetraethylammonium uptake in transfected HEK293 cells", "settings": "for Percentage transported / Uptake rate: MATE2-K", "procedure": "The pre-incubation solutions were removed, and incubation solutions containing the inhibitors and probe substrates (or transport buffer containing an equal volume of vehicle control and probe substrates) were added and incubated at 37°C for 2 min (5 min for OATP1B3). The probe substrate for OAT1 was 4-aminohippuric acid (10 μM), for OAT3 was estrone 3-sulfate (10 μM), for OCT2 was metformin (100 μM), for OATP1B1 was β-estradiol 17-(β-D-glucuronide) (5 μM), for OATP1B3 was β-estradiol 17-(β-D-glucuronide) (10 μM), and for MATE1 and MATE2-K was tetraethylammonium (10 μM). After incubation, cells were washed three times with ice-cold transport buffer (25 mM HEPES, pH 7.4, pH 8.0 for overexpressing MATE1 and MATE2-K HEK293 cells) and lysed in distilled water. The concentrations of probe substrates were determined by LC-MS/MS, and a BCA Kit (Solarbio ®Life Sciences, Beijing, China) was used to determine the protein content in the cell lysate.\nwhere C is the concentration of the drug in the cell lysate (nM), P is the protein concentration of the cell lysate (mg/mL), and T is the incubation time (minute). Uptake ratetest compound is the uptake rate of the substrate in the presence of the test compound. Uptake ratevehicle control is the uptake rate of the substrate in the presence of the vehicle control. Uptake ratepassive is the uptake rate of the substrate in the presence of the positive inhibitor at the top test concentration."}},
  "note": "“And” between values parts separate entries of the source, which are not always exact repeats. Equal values may be shown once.",
  "data": [
    {"compound": "C[C@H](Nc1ncnc(N)c1C#N)c1cc2ncc(Cl)n2nc1-c1ccccc1", "note": "[Amdizalisib]", "values": [
      {"measurement": "IC50", "setting": "CYP1A2", "value": "> 50", "unit": "µM"},
      {"measurement": "enzyme activity remaining", "setting": "CYP1A2; 0.08 μM", "value": "104% and 96.1%"},
      {"measurement": "enzyme activity remaining", "setting": "CYP1A2; 0.4 μM", "value": "102% and 99.1%"},
      {"measurement": "enzyme activity remaining", "setting": "CYP1A2; 2 μM", "value": "94.1% and 95.9%"},
      {"measurement": "enzyme activity remaining", "setting": "CYP1A2; 10 μM", "value": "97.6% and 90.1%"},
      {"measurement": "enzyme activity remaining", "setting": "CYP1A2; 50 μM", "value": "99.1% and 99.6%"},
      {"measurement": "cytotoxic effect on cell viability", "setting": "[1]", "value": "exhibited cytotoxicity against human hepatocytes in one donor"},
      {"measurement": "enzyme activity remaining", "setting": "CYP2C9; 0.08 μM", "value": "98.3% and 99.7%"},
      {"measurement": "enzyme activity remaining", "setting": "CYP2C9; 0.4 μM", "value": "94.2% and 95.6%"},
      {"measurement": "enzyme activity remaining", "setting": "CYP2C9; 2 μM", "value": 82.6, "unit": "%"},
      {"measurement": "enzyme activity remaining", "setting": "CYP2C9; 10 μM", "value": "53.7% and 52.8%"},
      {"measurement": "enzyme activity remaining", "setting": "CYP2C9; 50 μM", "value": "17.2% and 16.0%"},
      {"measurement": "IC50", "setting": "CYP2C9; HLM, reversible, without pre-incubation", "value": 10.7, "unit": "µM"},
      {"measurement": "IC50", "setting": "MATE2-K", "value": 38.2, "unit": "µM"},
      {"measurement": "calculated R value (MATE2-K)", "setting": "MATE2-K", "value": "< 1.1"},
      {"measurement": "Percentage transported", "setting": "MATE2-K; compound 0.3 μM", "value": 87.1, "unit": "%"},
      {"measurement": "Uptake rate", "setting": "MATE2-K; compound 0.3 μM", "value": "125±3.49", "unit": "pmol/mg protein/min"},
      {"measurement": "Percentage transported", "setting": "MATE2-K; compound 1 μM", "value": 89.9, "unit": "%"},
      {"measurement": "Uptake rate", "setting": "MATE2-K; compound 1 μM", "value": "129±7.96", "unit": "pmol/mg protein/min"},
      {"measurement": "Percentage transported", "setting": "MATE2-K; compound 3 μM", "value": 89.0, "unit": "%"},
      {"measurement": "Uptake rate", "setting": "MATE2-K; compound 3 μM", "value": "127±5.50", "unit": "pmol/mg protein/min"},
      {"measurement": "Percentage transported", "setting": "MATE2-K; compound 10 μM", "value": 89.6, "unit": "%"},
      {"measurement": "Uptake rate", "setting": "MATE2-K; compound 10 μM", "value": "128±4.89", "unit": "pmol/mg protein/min"},
      {"measurement": "Percentage transported", "setting": "MATE2-K; compound 30 μM", "value": 49.3, "unit": "%"},
      {"measurement": "Uptake rate", "setting": "MATE2-K; compound 30 μM", "value": "73.9±6.49", "unit": "pmol/mg protein/min"},
      {"measurement": "Percentage transported", "setting": "MATE2-K; compound 100 μM", "value": 29.6, "unit": "%"},
      {"measurement": "Uptake rate", "setting": "MATE2-K; compound 100 μM", "value": "47.4±3.61", "unit": "pmol/mg protein/min"},
      {"measurement": "inhibition at 2 min, 0.3 µM", "setting": "MATE2-K; human, pH 8", "value": 12.9, "unit": "%"},
      {"measurement": "inhibition at 2 min, 1 µM", "setting": "MATE2-K; human, pH 8", "value": 10.1, "unit": "%"},
      {"measurement": "inhibition at 2 min, 3 µM", "setting": "MATE2-K; human, pH 8", "value": 11, "unit": "%"},
      {"measurement": "inhibition at 2 min, 10 µM", "setting": "MATE2-K; human, pH 8", "value": 10.4, "unit": "%"},
      {"measurement": "inhibition at 2 min, 30 µM", "setting": "MATE2-K; human, pH 8", "value": 50.7, "unit": "%"},
      {"measurement": "inhibition at 2 min, 100 µM", "setting": "MATE2-K; human, pH 8", "value": 70.4, "unit": "%"}
    ]}
  ]
}
